Assays:
[1] = test system: histone H1 (cross linking by ADP-ribose); assay: glycation induced cross linking of histone H1, 12% SDS-PAGE, silver staining; format: biochemical, calf; settings: aliquots of 5 day incubation mixtures
Description: This example describes a secondary screening, to further evaluate compounds which were deemed positive following the assays of examples 1 and 2. Specifically, it will be recalled that each sample was tested in two wells, one of which was tested in example 2, supra. The sample not used was analyzed, via 12% SDS-PAGE, followed by silver staining, in order to visualize protein cross-linking. This serves as an independent measure of glycation caused protein damage. […] To test this, reaction aliquots of the 5 day incubation mixtures, described in Example 1, supra, were assessed on 12% SDS-PAGE. Both untreated histone H1, and the aminoguanidine containing positive control were tested in the same way. All were visualized by silver staining.

[2] = test system: histone H1 (glycation by ADP-ribose); assay: AGE-fluorescence screening of glycation inhibitors, histone H1 + ADP-ribose, 96 well microtiter plates; format: biochemical, calf; settings: for inhibition of AGE-fluorescence, in words: 1 to 10 mM, 5 days; for AGE-fluorescence (day 5): 5 days incubation; for % inhibition: AGE-fluorescence day 5; for AGE-fluorescence (day 0): value (spread)
Description: A 96-well, microtiter plate was used to carry out 48 reactions in duplicate. […] A second pair of wells contains the reactants and the known glycation inhibitor aminoguanidine, and functions as a positive control. Histone H1 is commercially available, and can be prepared following the procedures set out in Johns, et al., Biochem J. 92:55-59(1964), which is incorporated by reference herein.
The reaction system is 50 mM potassium phosphate buffer, at pH 7.4 to which 1.5 mg/ml histone H1 and 1.0 mM ADP-ribose were added. Reaction volume was 300 ul. AGE-fluorescence was measured over time, with incubation at 37° C., at 355 nm (ex) and 405 nm (em). Upon comparison to the control, a test compound was deemed potentially positive if AGE-fluorescence was suppressed.
The histone H1 (1.5 mg/ml) was combined with 1 mM ADP-ribose, in […] KH2PO4 buffer (pH 7.4, 37° C., 0.015% NaN3 added, to inhibit microbial growth). This reaction mixture was added, to 96 well microtiter plates. Test compounds were added to the reaction mixture, at concentrations ranging from 1 to 10 mM, in reaction volumes of 300 ul. Texts were run in duplicate.
Accumulated protein damage was determined by measuring AGE-fluorescence, at wavelengths (λex=370 nm; λ em=440 nm. The fluorescence is suppressed in the presence of compounds with inhibitory activity. Assays were read on a conventional microtiter plate, with a filter setting that approached the above conditions (λ ex: 355 nm, λ […]: 405 nm), which is in the range of the broad excitation/emission maxima of AGE compounds.
The fluorescence was measured at the beginning, and after 5 days of incubation.
The known glycation inhibitor aminoguanidine was used as a control.

[3] = test system: He-Cat (human epidermal keratinocytes); assay: protection against α-dicarbonyl toxicity in keratinocytes, cell count; format: cell-based; settings: for protection against growth inhibition by glyoxal: compound 1 mM added 15 minutes prior to glyoxal; for protection against growth inhibition by glyoxal / protection against methylglyoxal induced growth inhibition: 72 hours; for protection against methylglyoxal induced growth inhibition: compound 1 mM added 15 minutes prior to methylglyoxal
Description: (§1) Continuously cultured cell lines “He-Cat” (human epidermal keratinocytes), and “CF-3” (human dermal fibroblasts), were cultured under standard conditions, divided biweekly into DMEM containing 10% fetal bovine serum, and were kept in a humidified atmosphere containing 5% CO2 at 37° C. In order to divide the cells, 5% trypsin was used on the keratinocytes, and 1% trypsin was used on the fibroblasts.
(§2) Keratinocytes were seeded at 2×10^4 cells/well, and fibroblasts at 4×10^4 cells/well, using 6 well dishes. The cells were allowed to attach to the plate overnight. Either D-penicillamine or aminoguanidine (1 mM each) was added to the plates 15 minutes prior to addition of glyoxal or methylglyoxal. The α-dicarbonyl was left for 72 hours. Varying concentrations of the α-dicarbonyl were used. Cells were counted with a Coulter counter after 72 hours of stress. Cultures were also run where the glyoxal or methylglyoxal was used without the scavenger. L-alanine was used as a negative control as it was not expected to have protective effect.

[4] = test system: CF-3 (human dermal fibroblasts); assay: protection against α-dicarbonyl toxicity in fibroblasts, cell count; format: cell-based; settings: for protection against methylglyoxal induced growth inhibition: compound 1 mM added 15 minutes prior to methylglyoxal, 72 hours
Description: as §1, §2

[5] = test system: histone H1 (carbonylation); assay: histone H1 carbonylation by reducing sugars, and interference by compounds; format: biochemical; settings: compound 5 mM
Description: Both protein cross-linking and protein carbonylation are well established indicia of protein glycation. See Schacter, et al., Free Radic Biol Med. 17:429-437 (1994), incorporated by reference. In brief, following the assays described infra, formation of protein cross-linking was measured on 12% SDS-PAGE, followed by Coomassie and silver staining. Cross-linking was detectable with a high degree of sensitivity, when the reaction between ADP-ribose and histone H1 was carried out at pH 9.0. […] In FIG. 8, the abbreviations “M,” “D”, and “O” represent “monomer,” “dimer” and “oligomer,” respectively. Silver staining is the preferred way of determining the cross linking. Protein carbonlyation was determined via Western blotting. Specifically, AGE-BSA, which had been prepared by incubating BSA with 1.66M glucose, at pH 7.4 for 90 days at 37° C., was recognized after being derivatized with 2.4 dinitrophenlyhydrazine (“DNP”), when tested with antibodies specific for protein bound, DNP epitopes.
A series of experiments were carried out to compare different reducing sugars as glycation agents. In addition to ADP-ribose, ADP-glucose, D-ribose and D-glucose were tested. Briefly, histone H1 was combined with 1 mM of each sugar, and the mixture was incubated at pH 7.4. After 7 days of incubation, reaction aliquots were analyzed on 12% SDS-PACE gels, with silver staining. Results are presented in FIGS. 19A and B. In each of these, lane 1 is a control, with no sugar added, while lanes 2-5 show results using D-glucose, D-ribose, ADP-glucose, and ADP-ribose, respectively. […] The amount of carbonylation caused by ADP-ribose (0.82 mole/mole histone H1), and D-ribose (0.06 mole/mole histone H1) correlated with immunostaining.
In order to determine if the carbonylation of histone H1 by ADP-ribose involved an oxidative pathway, several compounds, known to interfere with glycoxidation of proteins by D-glucose were tested to determine if they interfered with this action by ADP-ribose. The compounds tested included 5 mM DTPA under argon, 5 mM aminoguanidine, 5 mM N^α acetyl L-cysteine, 5 mM mannitol, and 100 units/ml catalase.

[6] = aldehyde trapping, reaction with phenylacetaldehyde followed by HPLC; settings: same manner as phenylglyoxal
Description: Reactions were carried out in 10 mM phosphate buffer, pH 7.4, at 37° C., and were followed by HPLC analysis. Phenylglyoxal was used at a concentration of 50 mM, while D-penicillamine and aminoguanidine were used at concentrations of 250 mM, and 500 mM. The phenylglyoxal was used as a UV active, α-oxoaldehyde compound. Over the course of the reaction, aliquots were analyzed via HPLC. For reactions involving D-penicillamine, aliquots were taken at 20 second intervals and kept on dry ice for analysis. Initial reaction rates of phenylglyoxal and test compounds were monitored by following the disappearance of phenylglyoxal over time. D-penicillamine trapped phenylglyoxal more than 60 times faster than aminoguanidine. In order to determine if the α-oxo substitution had any impact on the progress of the aldehyde trapping reaction, the reactivity of D-penicillamine with the aldehyde corresponding to phenylglyoxal, i.e., phenylacetaldehyde, was carried out, in the same manner as is described herein.

[7] = α-dicarbonyl trapping, reaction with phenylglyoxal followed by HPLC
Description: To learn more about the reaction, D-penicillamine was reacted with phenylglyoxal. In the fashion described supra, phenylgyloxal, at final concentration of 10 mM, and D-penicillamine, at final concentration of 20 mM were reacted in 50 mM KH2PO4 buffer, pH 7.4, at room temperature. Reaction progress was monitored via HPLC analysis of reaction aliquots at 254 nm. After 40 minutes, more than 90% conversion of phenylgloxal peak into a single peak was observed. The product was obtained via preparative HPLC, was lyophilized, and analyzed by H-NMR spectroscopy.
Reactions were carried out in 10 mM phosphate buffer, pH 7.4, at 37° C., and were followed by HPLC analysis. Phenylglyoxal was used at a concentration of 50 mM, while D-penicillamine and aminoguanidine were used at concentrations of 250 mM, and 500 mM. The phenylglyoxal was used as a UV active, α-oxoaldehyde compound. Over the course of the reaction, aliquots were analyzed via HPLC. […] Initial reaction rates of phenylglyoxal and test compounds were monitored by following the disappearance of phenylglyoxal over time. […]
The measured, first order rate constant (k1st) was used to calculate the second order rate constant (k2nd), according to: […]
The calculated second order rate constants were determined at two reactant rates (5:1, and 10:1), and were in good agreement.

[8] = increased concentration of D-penicillamine, methylglyoxal
[9] = treated with 6004M methylglyoxal (so in the source)

SMILES	inhibition of histone H1 cross linking [1]	inhibition of AGE-fluorescence, in words [2]	AGE-fluorescence (day 5) ([2]; compound 1 mM)	% inhibition ([2]; compound 1 mM)	AGE-fluorescence (day 0) ([2]; compound 1 mM)	AGE-fluorescence (day 5) ([2]; compound 5 mM)	% inhibition ([2]; compound 5 mM)	AGE-fluorescence (day 0) ([2]; compound 5 mM)	AGE-fluorescence (day 5) ([2]; compound 10 mM)	% inhibition ([2]; compound 10 mM)	AGE-fluorescence (day 0) ([2]; compound 10 mM)	protection against growth inhibition by glyoxal [3]	protection against methylglyoxal induced growth inhibition [3]	protection against methylglyoxal induced growth inhibition [4]	also measured
CC(C)(S)C(N)C(=O)O (racemic) [D,L-Penicillamine]	more potent than aminoguanidine	the best of the compounds tested	13 (0.0)	40%	1.1 (0.2)	2.7 (0.0)	92%	1.1 (0.1)	1.7 (0.0)	97%	1.1 (0.1)				
N=C(N)NN [Aminoguanidine, aminoguanidine, reference compound]			4.3 (0.2)	84%	1.2 (0.1)	2.2 (0.0)	96%	1.2 (0.1)	1.8 (0.0)	97%	1.3 (0.1)	appeared to protect keratinocytes against growth inhibition by glyoxal	rescued both cell lines from methylglyoxal induced growth inhibition in part	rescued both cell lines from methylglyoxal induced growth inhibition in part	interference with carbonylation of histone H1 by ADP-ribose [5]: slight effect; suppression of AGE-fluorescence, primary screen outcome ([2]; test compound 5 mM or limit of solubility, pH 7.4, 37° C.): suppresses the glycation of histone H1 by ADP-ribose
CC(C)(S)[C@@H](N)C(=O)O [D-Penicillamine, reference compound]	more potent than aminoguanidine	the best of the compounds tested	11 (0.6)	51%	1.2 (0.0)	2.9 (0.3)	91%	1.1 (0.1)	1.4 (0.1)	99%	1.1 (0.0)	appeared to protect keratinocytes against growth inhibition by glyoxal	almost completely blocked methylglyoxal's toxicity	almost completely blocked methylglyoxal's toxicity	efficiency of trapping phenylacetaldehyde relative to phenylglyoxal [6]: about 14 times less efficiently; dose range cyto-protective effect [3, 8]: increased protection; survival [3, 9]: 100%; dose range cyto-protective effect [4, 8]: increased protection; survival [4, 9]: 47%; conversion of phenylglyoxal peak into a single peak ([7]; phenylglyoxal 10 mM, D-penicillamine 20 mM, 50 mM KH2PO4 pH 7.4, room temperature, after 40 minutes): more than 90%; rate of phenylglyoxal trapping relative to aminoguanidine ([7]; second order rate constants, 10 mM phosphate buffer pH 7.4, 37° C.): more than 60 times faster
NC(=O)C1=CN([C@@H]2O[C@H](COP(=O)(O)OP(=O)(O)OC[C@H]3O[C@@H](n4cnc5c(N)ncnc54)[C@H](O)[C@@H]3O)[C@@H](O)[C@H]2O)C=CC1 [NADH]	no inhibitory activity					31 (0.0)									
